Data: patent US7138361B2, “Herbicidal heterocycles” (E. I. du Pont de Nemours and Company, priority 2000, dated 2006)

Tests used:
Assay type in all cases: in vivo
[1] = tested on: Surinam grass (Brachiaria decumbens); experiment: Test B postemergence
Description: (§1) Seeds selected from barnyardgrass (Echinochloa crus-galli), Surinam grass (Brachiaria decumbens), cocklebur (Xanthium strumarium), corn (Zea mays), crabgrass (Digitaria sanguinalis), giant foxtail (Setaria faberii), lambsquarters (Chenopodium album), morning glory (Ipomoea hederacea), pigweed (Amaranthus retroflexus), rice (Oryza saliva) and velvetleaf (Abutilon theophrasti) were planted and treated preemergence with test chemicals formulated in a non-phytotoxic solvent mixture which included a surfactant.
(§2) At the same time, plants selected from these crop and weed species and also blackgrass (Alopecurus myosuroides), wheat (Triticum aestivum) and wild oat (Avena fatua) were treated with postemergence applications of test chemicals formulated in the same manner. Plants ranged in height from 2 to 18 cm (1- to 4-leaf stage) for postemergence treatments. Plant species in the flooded paddy test consisted of rice (Oryza saliva), smallflower flatsedge (Cyperus difformis), duck salad (Heteranthera limosa) and barnyardgrass (Echinochloa crus-galli) grown to the 2-leaf stage for testing. Treated plants and controls were maintained in a greenhouse for 13 to 15 days, after which time all species were compared to controls and visually evaluated. Plant response ratings, summarized in Table B, are based on a scale of 0 to 100 where 0 is no effect and 100 is complete control. A dash (-) response means no test result.

[2] = tested on: barnyardgrass (Echinochloa crus-galli); experiment: Test B postemergence
Description: as §1, §2

[3] = tested on: blackgrass (Alopecurus myosuroides); experiment: Test B postemergence
Description: as §1, §2

[4] = tested on: cocklebur (Xanthium strumarium); experiment: Test B postemergence
Description: as §1, §2

[5] = tested on: corn (Zea mays); experiment: Test B postemergence
Description: as §1, §2

[6] = tested on: crabgrass (Digitaria sanguinalis); experiment: Test B postemergence
Description: as §1, §2

[7] = tested on: giant foxtail (Setaria faberii); experiment: Test B postemergence
Description: as §1, §2

[8] = tested on: lambsquarters (Chenopodium album); experiment: Test B postemergence
Description: as §1, §2

[9] = tested on: morning glory (Ipomoea hederacea); experiment: Test B postemergence
Description: as §1, §2

[10] = tested on: pigweed (Amaranthus retroflexus); experiment: Test B postemergence
Description: as §1, §2

[11] = tested on: velvetleaf (Abutilon theophrasti); experiment: Test B postemergence
Description: as §1, §2

[12] = tested on: wheat (Triticum aestivum); experiment: Test B postemergence
Description: as §1, §2

[13] = tested on: wild oat (Avena fatua); experiment: Test B postemergence
Description: as §1, §2

[14] = tested on: Surinam grass (Brachiaria decumbens); experiment: Test B preemergence
Description: as §1, §2

[15] = tested on: barnyardgrass (Echinochloa crus-galli); experiment: Test B preemergence
Description: as §1, §2

[16] = tested on: cocklebur (Xanthium strumarium); experiment: Test B preemergence
Description: as §1, §2

[17] = tested on: corn (Zea mays); experiment: Test B preemergence
Description: as §1, §2

[18] = tested on: crabgrass (Digitaria sanguinalis); experiment: Test B preemergence
Description: as §1, §2

[19] = tested on: giant foxtail (Setaria faberii); experiment: Test B preemergence
Description: as §1, §2

[20] = tested on: lambsquarters (Chenopodium album); experiment: Test B preemergence
Description: as §1, §2

[21] = tested on: morning glory (Ipomoea hederacea); experiment: Test B preemergence
Description: as §1, §2

[22] = tested on: pigweed (Amaranthus retroflexus); experiment: Test B preemergence
Description: as §1, §2

[23] = tested on: rice (Oryza saliva); experiment: Test B preemergence
Description: as §1, §2

[24] = tested on: velvetleaf (Abutilon theophrasti); experiment: Test B preemergence
Description: as §1, §2

[25] = tested on: barnyardgrass (Echinochloa crus-galli); experiment: Test C flooded paddy test; conditions: for Barnyardgrass plant response rating: Flooded Paddy, scale 0 to 100, 0 no effect, 100 complete control; for Plant response rating, Barnyardgrass: flooded paddy test, scale 0 to 100 (0 no effect, 100 complete control)
Protocol: (§3) At the same time, plants selected from these crop and weed species and also winter barley (Hordeum vulgare), blackgrass (Alopecurus myosuroides), canary grass (Phalaris minor), chickweed (Stellaria media), downy brome (Bromus tectorum), green foxtail (Setaria viridis), Italian ryegrass (Lolium multiflorum), wheat (Triticum aestivum), wild oat (Avena fatua) and windgrass (Apera spica-venti) were treated with postemergence applications of some of the test chemicals formulated in the same manner. Plants ranged in height from 2 to 18 cm (1- to 4-leaf stage) for postemergence treatments. Plant species in the flooded paddy test consisted of rice (Oryza saliva), smallflower flatsedge (Cyperus difformis), duck salad (Heteranthera limosa) and barnyardgrass (Echinochloa crus-galli) grown to the 2-leaf stage for testing. Treated plants and controls were maintained in a greenhouse for 12 to 14 days, after which time all species were compared to controls and visually evaluated. Plant response ratings, summarized in Table C, are based on a scale of 0 to 100 where 0 is no effect and 100 is complete control. A dash (-) response means no test result.

[26] = tested on: duck salad (Heteranthera limosa); experiment: Test C flooded paddy test; conditions: for Ducksalad plant response rating: Flooded Paddy, scale 0 to 100, 0 no effect, 100 complete control; for Plant response rating, Ducksalad: flooded paddy test, scale 0 to 100 (0 no effect, 100 complete control)
Protocol: as §3

[27] = tested on: rice (Oryza saliva); experiment: Test C flooded paddy test; conditions: for Rice plant response rating: Flooded Paddy, scale 0 to 100, 0 no effect, 100 complete control; for Plant response rating, Rice: flooded paddy test, scale 0 to 100 (0 no effect, 100 complete control)
Protocol: as §3

[28] = tested on: smallflower flatsedge (Cyperus difformis); experiment: Test C flooded paddy test; conditions: for Flatsedge plant response rating: Flooded Paddy, scale 0 to 100, 0 no effect, 100 complete control; for Plant response rating, Flatsedge: flooded paddy test, scale 0 to 100 (0 no effect, 100 complete control)
Protocol: as §3

[29] = Rate 62 g/ha, scale 0 to 100, 0 no effect, 100 complete control
[30] = Rate 250 g/ha, scale 0 (no effect) to 100 (complete control), 13 to 15 days
[31] = preemergence, Rate 62 g/ha, scale of 0 to 100 where 0 is no effect and 100 is complete control, 13 to 15 days
[32] = preemergence, Rate 250 g/ha, scale 0 to 100, 0 no effect, 100 complete control
[33] = Rate 125 g/ha, scale 0 to 100, 0 no effect, 100 complete control
[34] = Rate 500 g/ha, scale 0 to 100, 0 is no effect, 100 is complete control, 13 to 15 days
[35] = Preemergence, Rate 500 g/ha, scale 0 to 100, 0 no effect, 100 complete control
[36] = preemergence, Rate 125 g/ha, scale of 0 to 100 where 0 is no effect and 100 is complete control, 13 to 15 days

CCOc1cccc(N2CCC(n3ccc(C(CC)CC)n3)C2=O)c1 (centres unmarked) [Compound 125]
40: Plant response rating, Corn [17, 32] | Plant response rating, Velvetleaf [24, 32] | Plant response rating, Ducksalad ([26]; Rate 62 g/ha) | Rice plant response rating ([27]; Rate 250 g/ha)
60: Rice plant response rating ([27]; Rate 500 g/ha)
10: Plant response rating, Rice ([27]; Rate 125 g/ha)
70: Plant response rating, Cocklebur [4, 30] | Plant response rating, Pigweed [10, 30] | Plant response rating, Surinam grass [14, 31]
95: Plant response rating, Ducksalad ([26]; Rate 125 g/ha)
100: Plant response rating, Lambsquarters [8, 29] | Plant response rating, Lambsquarters [8, 30] | Plant response rating, Morningglory [9, 30] | Plant response rating, Surinam grass [14, 32] | Plant response rating, Barnyardgrass [15, 31] | Plant response rating, Barnyardgrass [15, 32] | Plant response rating, Crabgrass [18, 31] | Plant response rating, Crabgrass [18, 32] | Plant response rating, Foxtail, Giant [19, 31] | Plant response rating, Foxtail, Giant [19, 32] | Plant response rating, Lambsquarters [20, 31] | Plant response rating, Lambsquarters [20, 32] | Plant response rating, Pigweed [22, 31] | Plant response rating, Pigweed [22, 32] | Plant response rating, Rice [23, 32] | Barnyardgrass plant response rating ([25]; Rate 250 g/ha) | Barnyardgrass plant response rating ([25]; Rate 500 g/ha) | Plant response rating, Barnyardgrass ([25]; Rate 125 g/ha) | Ducksalad plant response rating ([26]; Rate 250 g/ha) | Ducksalad plant response rating ([26]; Rate 500 g/ha) | Flatsedge plant response rating ([28]; Rate 250 g/ha) | Flatsedge plant response rating ([28]; Rate 500 g/ha) | Plant response rating, Flatsedge ([28]; Rate 62 g/ha) | Plant response rating, Flatsedge ([28]; Rate 125 g/ha)
30: Plant response rating, Cocklebur [4, 29] | Plant response rating, Pigweed [10, 29]
65: Plant response rating, Barnyardgrass ([25]; Rate 62 g/ha)
0: Plant response rating, Surinam grass [1, 29] | Plant response rating, Surinam grass [1, 30] | Plant response rating, Barnyardgrass [2, 29] | Plant response rating, Blackgrass [3, 29] | Plant response rating, Blackgrass [3, 30] | Plant response rating, Corn [5, 29] | Plant response rating, Corn [5, 30] | Plant response rating, Crabgrass [6, 29] | Plant response rating, Crabgrass [6, 30] | Plant response rating, Foxtail, Giant [7, 29] | Plant response rating, Foxtail, Giant [7, 30] | Plant response rating, Velvetleaf [11, 29] | Plant response rating, Velvetleaf [11, 30] | Plant response rating, Wheat [12, 29] | Plant response rating, Wheat [12, 30] | Plant response rating, Wild Oat [13, 29] | Plant response rating, Wild Oat [13, 30] | Plant response rating, Cocklebur [16, 31] | Plant response rating, Velvetleaf [24, 31] | Plant response rating, Rice ([27]; Rate 62 g/ha)
50: Plant response rating, Morningglory [9, 29] | Plant response rating, Cocklebur [16, 32] | Plant response rating, Morningglory [21, 31] | Plant response rating, Rice [23, 31]
20: Plant response rating, Corn [17, 31]
80: Plant response rating, Barnyardgrass [2, 30] | Plant response rating, Morningglory [21, 32]

Cc1cccc(N2CCC(n3ccc(C(C)(C)C)n3)C2=O)c1 (centres unmarked) [Compound 112]
10: Plant response rating, Surinam grass [14, 36]
0: Plant response rating, Surinam grass [1, 33] | Plant response rating, Barnyardgrass [2, 33] | Plant response rating, Blackgrass [3, 33] | Plant response rating, Blackgrass [3, 34] | Plant response rating, Cocklebur [4, 33] | Plant response rating, Cocklebur [4, 34] | Plant response rating, Corn [5, 33] | Plant response rating, Corn [5, 34] | Plant response rating, Foxtail, Giant [7, 33] | Plant response rating, Foxtail, Giant [7, 34] | Plant response rating, Velvetleaf [11, 33] | Plant response rating, Velvetleaf [11, 34] | Plant response rating, Cocklebur [16, 35] | Plant response rating, Cocklebur [16, 36] | Plant response rating, Corn [17, 36] | Plant response rating, Rice [23, 36] | Plant response rating, Velvetleaf [24, 35] | Plant response rating, Velvetleaf [24, 36] | Plant response rating, Barnyardgrass ([25]; Rate 62 g/ha) | Plant response rating, Barnyardgrass ([25]; Rate 125 g/ha) | Plant response rating, Ducksalad ([26]; Rate 62 g/ha) | Plant response rating, Ducksalad ([26]; Rate 125 g/ha) | Plant response rating, Rice ([27]; Rate 62 g/ha) | Plant response rating, Rice ([27]; Rate 125 g/ha)
80: Plant response rating, Pigweed [10, 34]
20: Plant response rating, Barnyardgrass [2, 34] | Plant response rating, Morningglory [9, 33] | Barnyardgrass plant response rating ([25]; Rate 250 g/ha) | Ducksalad plant response rating ([26]; Rate 250 g/ha) | Rice plant response rating ([27]; Rate 250 g/ha) | Plant response rating, Flatsedge ([28]; Rate 62 g/ha)
70: Rice plant response rating ([27]; Rate 500 g/ha)
40: Plant response rating, Wheat [12, 33] | Plant response rating, Wheat [12, 34]
30: Plant response rating, Crabgrass [6, 33] | Plant response rating, Crabgrass [6, 34] | Plant response rating, Lambsquarters [8, 33] | Plant response rating, Lambsquarters [8, 34] | Plant response rating, Wild Oat [13, 33] | Plant response rating, Surinam grass [14, 35] | Plant response rating, Corn [17, 35] | Plant response rating, Morningglory [21, 35] | Plant response rating, Morningglory [21, 36] | Ducksalad plant response rating ([26]; Rate 500 g/ha)
100: Plant response rating, Surinam grass [1, 34] | Plant response rating, Barnyardgrass [15, 35] | Plant response rating, Crabgrass [18, 35] | Plant response rating, Crabgrass [18, 36] | Plant response rating, Foxtail, Giant [19, 35] | Plant response rating, Foxtail, Giant [19, 36] | Plant response rating, Lambsquarters [20, 35] | Plant response rating, Lambsquarters [20, 36] | Plant response rating, Pigweed [22, 35] | Plant response rating, Pigweed [22, 36] | Plant response rating, Rice [23, 35] | Flatsedge plant response rating ([28]; Rate 250 g/ha) | Flatsedge plant response rating ([28]; Rate 500 g/ha)
60: Plant response rating, Pigweed [10, 33] | Plant response rating, Wild Oat [13, 34] | Barnyardgrass plant response rating ([25]; Rate 500 g/ha)
90: Plant response rating, Barnyardgrass [15, 36]
50: Plant response rating, Morningglory [9, 34] | Plant response rating, Flatsedge ([28]; Rate 125 g/ha)
